Laboratory results reported in PMC4076210, “Discovery of Novel AKT Inhibitors with Enhanced Anti-Tumor Effects in Combination with the MEK Inhibitor” (PLoS ONE, 2014).
Read-outs that look alike come from different tables or passages of the source.

Legend:
[1] = biological target: T1, CaMKIIβ(h) (Homo sapiens, UniProt Q13554); experiment: Kinase panel; assay type: biochemical
T1 construct: purchased Millipore KinaseProfiler

[2] = biological target: T2, MKK7β(h) (Homo sapiens, UniProt O14733); experiment: Kinase panel; assay type: biochemical
T2 construct: purchased Millipore KinaseProfiler
T2 sequence (O14733 1-419): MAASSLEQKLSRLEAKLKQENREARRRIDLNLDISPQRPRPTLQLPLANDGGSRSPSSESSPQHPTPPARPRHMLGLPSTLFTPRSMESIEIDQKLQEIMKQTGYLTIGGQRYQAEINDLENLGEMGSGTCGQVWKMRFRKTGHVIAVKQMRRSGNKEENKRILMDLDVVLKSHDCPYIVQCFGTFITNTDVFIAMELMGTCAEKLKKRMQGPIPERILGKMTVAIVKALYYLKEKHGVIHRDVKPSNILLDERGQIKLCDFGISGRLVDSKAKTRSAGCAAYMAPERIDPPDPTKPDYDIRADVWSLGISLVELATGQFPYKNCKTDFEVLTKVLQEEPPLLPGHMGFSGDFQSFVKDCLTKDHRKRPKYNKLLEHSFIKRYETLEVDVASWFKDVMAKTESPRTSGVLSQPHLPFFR

[3] = biological target: T3, PAK3(h) (Homo sapiens, UniProt O75914); experiment: Kinase panel; assay type: biochemical
T3 construct: purchased Millipore KinaseProfiler

[4] = biological target: T4, EphA7(h) (Homo sapiens, UniProt Q15375); experiment: Kinase panel; assay type: biochemical
T4 construct: purchased Millipore KinaseProfiler

[5] = biological target: T5, CK1δ(h) (Homo sapiens, UniProt P48730); experiment: Kinase panel; assay type: biochemical
T5 construct: purchased Millipore KinaseProfiler

[6] = biological target: T6, Abl(T315I)(h) (Homo sapiens, UniProt P00519, T315I); experiment: Kinase panel; assay type: biochemical
T6 construct: purchased Millipore KinaseProfiler

[7] = biological target: T7, cKit(V654A)(h) (Homo sapiens, UniProt P10721, V654A); experiment: Kinase panel; assay type: biochemical
T7 construct: purchased Millipore KinaseProfiler

[8] = biological target: T8, CSK(h) (Homo sapiens, UniProt P41240); experiment: Kinase panel; assay type: biochemical
T8 construct: purchased Millipore KinaseProfiler

[9] = biological target: T9, DAPK2(h) (Homo sapiens, UniProt Q9UIK4); experiment: Kinase panel; assay type: biochemical
T9 construct: purchased Millipore KinaseProfiler

[10] = biological target: T10, NEK2(h) (Homo sapiens, UniProt P51955); experiment: Kinase panel; assay type: biochemical
T10 construct: purchased Millipore KinaseProfiler
T10 sequence (P51955 1-445): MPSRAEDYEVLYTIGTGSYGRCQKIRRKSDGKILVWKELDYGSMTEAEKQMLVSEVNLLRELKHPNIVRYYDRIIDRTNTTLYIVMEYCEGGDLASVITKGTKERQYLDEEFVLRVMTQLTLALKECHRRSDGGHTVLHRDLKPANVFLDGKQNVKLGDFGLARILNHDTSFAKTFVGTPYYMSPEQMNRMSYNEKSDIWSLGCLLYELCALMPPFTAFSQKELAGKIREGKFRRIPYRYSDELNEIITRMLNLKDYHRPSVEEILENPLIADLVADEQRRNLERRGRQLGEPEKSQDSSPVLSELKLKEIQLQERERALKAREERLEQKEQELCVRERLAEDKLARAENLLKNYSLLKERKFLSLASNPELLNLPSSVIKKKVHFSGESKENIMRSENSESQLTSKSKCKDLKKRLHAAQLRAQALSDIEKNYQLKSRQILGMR

[11] = Blood glucose after single oral dose; assay type: in vivo, mouse
Description: Blood glucose levels were determined from tail vein puncture in mice using a handheld glucometer. Plasma Insulin levels were using the Rat Ultrasensitive Insulin ELISA kit (Crystal Chem Inc).

[12] = biological target: T11, TAO3(h) (Homo sapiens, UniProt Q9H2K8); experiment: Kinase panel; assay type: biochemical
T11 construct: purchased Millipore KinaseProfiler
T11 sequence (Q9H2K8 1-898): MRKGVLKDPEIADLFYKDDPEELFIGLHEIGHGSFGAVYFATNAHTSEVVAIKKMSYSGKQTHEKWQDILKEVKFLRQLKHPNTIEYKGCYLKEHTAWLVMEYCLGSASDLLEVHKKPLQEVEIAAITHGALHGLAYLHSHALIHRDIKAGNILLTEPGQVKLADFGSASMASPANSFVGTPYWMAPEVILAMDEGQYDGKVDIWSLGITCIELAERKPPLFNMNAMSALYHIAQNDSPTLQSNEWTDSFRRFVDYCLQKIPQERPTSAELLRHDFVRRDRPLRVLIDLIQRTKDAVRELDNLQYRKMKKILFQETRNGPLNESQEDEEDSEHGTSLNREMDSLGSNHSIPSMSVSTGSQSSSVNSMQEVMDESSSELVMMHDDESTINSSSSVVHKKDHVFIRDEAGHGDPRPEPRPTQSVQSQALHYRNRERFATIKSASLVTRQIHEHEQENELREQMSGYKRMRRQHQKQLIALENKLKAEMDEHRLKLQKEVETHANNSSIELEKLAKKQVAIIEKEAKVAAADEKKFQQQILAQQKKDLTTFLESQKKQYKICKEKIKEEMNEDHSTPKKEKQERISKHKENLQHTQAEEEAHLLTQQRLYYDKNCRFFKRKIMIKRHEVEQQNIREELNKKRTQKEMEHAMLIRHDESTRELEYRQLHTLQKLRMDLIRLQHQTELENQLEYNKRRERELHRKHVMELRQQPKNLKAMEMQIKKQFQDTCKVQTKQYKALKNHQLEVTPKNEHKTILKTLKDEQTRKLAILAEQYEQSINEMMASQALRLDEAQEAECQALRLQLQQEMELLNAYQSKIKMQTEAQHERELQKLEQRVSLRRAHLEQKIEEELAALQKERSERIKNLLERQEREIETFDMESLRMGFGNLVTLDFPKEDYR

[13] = biological target: T12, Mnk2(h) (Homo sapiens, UniProt Q9HBH9); experiment: Kinase panel; assay type: biochemical
T12 construct: purchased Millipore KinaseProfiler

[14] = biological target: T13, Rsk1(r) (Rattus norvegicus, UniProt Q63531); experiment: Kinase panel; assay type: biochemical
T13 construct: purchased Millipore KinaseProfiler
T13 sequence (Q63531 whole entry): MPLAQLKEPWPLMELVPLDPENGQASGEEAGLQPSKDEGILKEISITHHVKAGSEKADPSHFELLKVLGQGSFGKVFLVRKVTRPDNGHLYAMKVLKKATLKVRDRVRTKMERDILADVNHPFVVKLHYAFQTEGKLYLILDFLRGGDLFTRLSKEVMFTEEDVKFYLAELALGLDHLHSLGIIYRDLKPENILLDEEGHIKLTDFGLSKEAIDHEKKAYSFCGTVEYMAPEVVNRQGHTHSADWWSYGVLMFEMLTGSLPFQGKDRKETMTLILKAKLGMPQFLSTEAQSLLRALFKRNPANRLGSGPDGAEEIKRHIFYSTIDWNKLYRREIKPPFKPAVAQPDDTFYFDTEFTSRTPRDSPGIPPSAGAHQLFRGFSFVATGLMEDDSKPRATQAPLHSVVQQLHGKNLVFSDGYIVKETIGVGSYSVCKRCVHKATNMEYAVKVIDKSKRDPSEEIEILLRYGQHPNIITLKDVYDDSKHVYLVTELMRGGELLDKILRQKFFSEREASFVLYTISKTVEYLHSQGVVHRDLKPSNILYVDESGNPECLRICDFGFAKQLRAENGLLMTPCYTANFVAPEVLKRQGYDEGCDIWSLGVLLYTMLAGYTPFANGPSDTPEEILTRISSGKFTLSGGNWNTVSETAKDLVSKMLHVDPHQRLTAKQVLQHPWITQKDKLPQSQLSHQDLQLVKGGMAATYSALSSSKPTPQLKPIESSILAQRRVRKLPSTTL

T8 sequence (P41240 whole entry): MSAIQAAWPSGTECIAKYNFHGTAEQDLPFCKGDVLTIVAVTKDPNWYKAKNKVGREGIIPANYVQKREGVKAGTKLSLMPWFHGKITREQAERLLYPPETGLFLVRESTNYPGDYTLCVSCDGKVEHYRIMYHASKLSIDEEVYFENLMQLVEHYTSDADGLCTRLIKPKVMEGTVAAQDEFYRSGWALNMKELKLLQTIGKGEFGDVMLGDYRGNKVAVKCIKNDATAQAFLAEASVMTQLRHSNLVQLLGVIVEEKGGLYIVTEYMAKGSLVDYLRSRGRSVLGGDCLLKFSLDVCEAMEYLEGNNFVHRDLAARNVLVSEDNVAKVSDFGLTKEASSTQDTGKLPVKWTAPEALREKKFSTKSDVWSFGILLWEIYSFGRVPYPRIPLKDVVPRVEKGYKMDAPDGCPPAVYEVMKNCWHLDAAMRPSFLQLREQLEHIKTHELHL
T5 sequence (P48730 whole entry): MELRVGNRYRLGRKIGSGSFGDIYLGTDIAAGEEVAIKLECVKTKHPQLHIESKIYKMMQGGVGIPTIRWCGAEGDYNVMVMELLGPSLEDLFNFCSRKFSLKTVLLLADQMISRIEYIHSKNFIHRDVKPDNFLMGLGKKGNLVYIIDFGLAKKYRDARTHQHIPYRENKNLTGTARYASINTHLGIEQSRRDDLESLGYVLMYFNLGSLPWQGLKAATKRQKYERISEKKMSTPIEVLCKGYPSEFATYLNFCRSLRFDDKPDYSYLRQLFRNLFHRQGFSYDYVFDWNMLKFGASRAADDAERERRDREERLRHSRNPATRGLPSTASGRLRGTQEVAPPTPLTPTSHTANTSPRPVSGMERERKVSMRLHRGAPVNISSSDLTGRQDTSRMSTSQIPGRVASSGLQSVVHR
T9 sequence (Q9UIK4 whole entry): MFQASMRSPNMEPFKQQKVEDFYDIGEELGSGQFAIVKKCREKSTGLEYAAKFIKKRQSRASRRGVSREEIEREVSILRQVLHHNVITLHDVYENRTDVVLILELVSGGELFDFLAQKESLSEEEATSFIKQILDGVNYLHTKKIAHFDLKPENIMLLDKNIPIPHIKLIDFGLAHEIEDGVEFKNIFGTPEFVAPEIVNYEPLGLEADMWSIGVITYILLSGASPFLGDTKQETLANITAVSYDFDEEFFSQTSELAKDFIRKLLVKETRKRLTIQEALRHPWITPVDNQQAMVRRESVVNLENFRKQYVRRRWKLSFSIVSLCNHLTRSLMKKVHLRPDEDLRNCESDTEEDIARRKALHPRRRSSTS
T12 sequence (Q9HBH9 whole entry): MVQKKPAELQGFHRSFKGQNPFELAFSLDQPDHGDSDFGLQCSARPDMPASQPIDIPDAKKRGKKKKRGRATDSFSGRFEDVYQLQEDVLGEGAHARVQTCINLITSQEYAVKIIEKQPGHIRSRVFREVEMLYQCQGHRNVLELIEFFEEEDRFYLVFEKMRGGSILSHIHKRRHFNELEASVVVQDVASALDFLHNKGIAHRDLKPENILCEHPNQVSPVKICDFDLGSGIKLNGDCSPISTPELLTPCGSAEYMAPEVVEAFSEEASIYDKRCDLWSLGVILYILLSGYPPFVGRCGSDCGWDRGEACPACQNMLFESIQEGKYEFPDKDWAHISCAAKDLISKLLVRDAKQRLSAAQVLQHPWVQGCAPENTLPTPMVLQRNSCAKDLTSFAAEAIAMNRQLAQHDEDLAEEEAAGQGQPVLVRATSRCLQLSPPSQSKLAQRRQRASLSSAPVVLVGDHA
T1 sequence (Q13554 whole entry): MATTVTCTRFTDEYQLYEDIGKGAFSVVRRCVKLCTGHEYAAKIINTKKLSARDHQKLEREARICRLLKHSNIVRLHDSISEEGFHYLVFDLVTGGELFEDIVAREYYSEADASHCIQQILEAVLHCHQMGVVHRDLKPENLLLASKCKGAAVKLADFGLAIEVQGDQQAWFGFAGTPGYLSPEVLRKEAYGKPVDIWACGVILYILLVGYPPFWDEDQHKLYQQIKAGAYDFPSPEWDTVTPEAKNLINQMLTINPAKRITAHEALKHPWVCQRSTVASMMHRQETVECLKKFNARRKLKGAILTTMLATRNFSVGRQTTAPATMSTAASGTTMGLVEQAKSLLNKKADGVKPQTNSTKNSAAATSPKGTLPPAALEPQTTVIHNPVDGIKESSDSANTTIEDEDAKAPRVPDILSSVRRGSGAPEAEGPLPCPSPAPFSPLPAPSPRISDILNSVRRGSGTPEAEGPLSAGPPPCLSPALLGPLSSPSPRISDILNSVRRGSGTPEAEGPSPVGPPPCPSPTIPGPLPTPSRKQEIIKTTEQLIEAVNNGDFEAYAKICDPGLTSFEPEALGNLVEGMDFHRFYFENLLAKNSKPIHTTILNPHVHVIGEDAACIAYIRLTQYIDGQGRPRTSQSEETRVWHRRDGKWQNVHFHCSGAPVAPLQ
T3 sequence (O75914 whole entry): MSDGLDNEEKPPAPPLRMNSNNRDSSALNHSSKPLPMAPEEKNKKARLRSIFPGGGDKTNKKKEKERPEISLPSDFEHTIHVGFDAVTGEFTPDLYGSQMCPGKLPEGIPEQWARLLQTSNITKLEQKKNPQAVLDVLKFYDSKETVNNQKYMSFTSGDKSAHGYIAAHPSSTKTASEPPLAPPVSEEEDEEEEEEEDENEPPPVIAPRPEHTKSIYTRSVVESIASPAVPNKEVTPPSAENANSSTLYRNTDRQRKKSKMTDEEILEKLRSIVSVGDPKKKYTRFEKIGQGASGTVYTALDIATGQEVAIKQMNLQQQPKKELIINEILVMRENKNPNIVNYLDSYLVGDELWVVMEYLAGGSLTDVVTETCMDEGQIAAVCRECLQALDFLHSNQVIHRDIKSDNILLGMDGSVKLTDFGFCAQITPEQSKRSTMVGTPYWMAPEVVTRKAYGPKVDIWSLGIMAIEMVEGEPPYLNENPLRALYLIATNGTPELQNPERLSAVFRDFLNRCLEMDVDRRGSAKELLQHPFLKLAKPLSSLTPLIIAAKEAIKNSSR
T4 sequence (Q15375 28-998): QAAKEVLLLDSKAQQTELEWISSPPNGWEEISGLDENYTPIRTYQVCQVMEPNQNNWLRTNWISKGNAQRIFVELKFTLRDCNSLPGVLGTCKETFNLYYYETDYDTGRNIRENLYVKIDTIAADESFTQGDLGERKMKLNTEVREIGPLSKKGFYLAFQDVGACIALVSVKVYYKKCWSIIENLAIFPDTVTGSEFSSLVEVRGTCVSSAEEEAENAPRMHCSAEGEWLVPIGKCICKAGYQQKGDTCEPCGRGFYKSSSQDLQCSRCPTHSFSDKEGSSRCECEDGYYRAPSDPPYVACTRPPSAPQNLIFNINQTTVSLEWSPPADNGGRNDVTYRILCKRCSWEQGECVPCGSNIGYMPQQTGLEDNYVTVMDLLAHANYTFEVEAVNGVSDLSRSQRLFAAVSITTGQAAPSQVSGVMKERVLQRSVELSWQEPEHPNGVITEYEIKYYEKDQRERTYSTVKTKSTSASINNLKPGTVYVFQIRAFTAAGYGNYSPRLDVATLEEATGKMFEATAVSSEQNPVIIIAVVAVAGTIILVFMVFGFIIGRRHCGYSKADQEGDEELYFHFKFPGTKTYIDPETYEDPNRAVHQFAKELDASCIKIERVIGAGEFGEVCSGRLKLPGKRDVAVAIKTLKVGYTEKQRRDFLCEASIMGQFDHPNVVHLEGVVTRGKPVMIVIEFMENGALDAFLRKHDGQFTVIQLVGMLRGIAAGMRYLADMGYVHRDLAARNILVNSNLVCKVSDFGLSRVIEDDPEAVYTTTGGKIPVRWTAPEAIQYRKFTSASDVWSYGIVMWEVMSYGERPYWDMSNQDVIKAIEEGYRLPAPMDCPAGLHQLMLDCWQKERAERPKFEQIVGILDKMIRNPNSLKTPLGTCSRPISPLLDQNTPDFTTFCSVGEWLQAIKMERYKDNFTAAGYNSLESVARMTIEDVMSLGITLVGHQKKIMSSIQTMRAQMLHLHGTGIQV

Cn1ncc(Cl)c1-c1cc(C(=O)N[C@H](CN)Cc2ccc(F)c(F)c2)oc1Cl [GSK2141795]
inhibition at 0.5 µM ([1]; 0.5 µM, read-out: % Inhibition): 15%
inhibition at 10 µM ([1]; 10 µM, read-out: % Inhibition): 75%
inhibition at 0.5 µM ([2]; 0.5 µM, read-out: % Inhibition): -13%
inhibition at 10 µM ([2]; 10 µM, read-out: % Inhibition): -30%
inhibition at 0.5 µM ([3]; 0.5 µM, read-out: % Inhibition): 6%
inhibition at 10 µM ([3]; 10 µM, read-out: % Inhibition): 28%
inhibition at 0.5 µM ([4]; 0.5 µM, read-out: % Inhibition): -3%
inhibition at 10 µM ([4]; 10 µM, read-out: % Inhibition): 16%
inhibition at 0.5 µM ([5]; 0.5 µM, read-out: % Inhibition): -2%
inhibition at 10 µM ([5]; 10 µM, read-out: % Inhibition): 63%
inhibition at 0.5 µM ([6]; 0.5 µM, read-out: % Inhibition): -2%
inhibition at 10 µM ([6]; 10 µM, read-out: % Inhibition): -2%
inhibition at 0.5 µM ([7]; 0.5 µM, read-out: % Inhibition): -2%
inhibition at 10 µM ([7]; 10 µM, read-out: % Inhibition): -3%
inhibition at 0.5 µM ([8]; 0.5 µM, read-out: % Inhibition): 0%
inhibition at 10 µM ([8]; 10 µM, read-out: % Inhibition): -14%
inhibition at 0.5 µM ([9]; 0.5 µM, read-out: % Inhibition): -10%
inhibition at 10 µM ([9]; 10 µM, read-out: % Inhibition): 58%
inhibition at 0.5 µM ([10]; 0.5 µM, read-out: % Inhibition): -4%
inhibition at 10 µM ([10]; 10 µM, read-out: % Inhibition): 2%
blood glucose level ([11]; maximal tolerated dose of 30 mg/kg, daily): 200 to 300 mg/dL
time for glucose to return to normal ([11]; single 30 mg/kg dose): ≤ 8 h
blood glucose level ([11]; single 30 mg/kg dose, 2 h post dosing): 200 mg/dL
inhibition at 0.5 µM ([12]; 0.5 µM, read-out: % Inhibition): -16%
inhibition at 10 µM ([12]; 10 µM, read-out: % Inhibition): -4%
inhibition at 0.5 µM ([13]; 0.5 µM, read-out: % Inhibition): 9%
inhibition at 10 µM ([13]; 10 µM, read-out: % Inhibition): 80%
inhibition at 0.5 µM ([14]; 0.5 µM, read-out: % Inhibition): 57%
inhibition at 10 µM ([14]; 10 µM, read-out: % Inhibition): 95%

Cn1ncc(Cl)c1-c1cc(C(=O)N[C@H](CN)Cc2cccc(F)c2)sc1Cl [GSK2110183]
inhibition at 0.5 µM [1]: 5%
inhibition at 10 µM [1]: 61%
inhibition at 0.5 µM [2]: 12%
inhibition at 10 µM [2]: 28%
inhibition at 0.5 µM [3]: -2%
inhibition at 10 µM [3]: 62%
inhibition at 0.5 µM [4]: -4%
inhibition at 10 µM [4]: 8%
inhibition at 0.5 µM [5]: -1%
inhibition at 10 µM [5]: 49%
inhibition at 0.5 µM [6]: -1%
inhibition at 10 µM [6]: 6%
inhibition at 0.5 µM [7]: -9%
inhibition at 10 µM [7]: -9%
inhibition at 0.5 µM [8]: 11%
inhibition at 10 µM [8]: 15%
inhibition at 0.5 µM [9]: -1%
inhibition at 10 µM [9]: 37%
inhibition at 0.5 µM [10]: -10%
inhibition at 10 µM [10]: -8%
time for blood glucose to return to normal levels ([11]; 100 mg/kg single oral dose): ≤ 8 h
blood glucose level ([11]; 100 mg/kg single oral dose, 2 h post dosing): 211 mg/dL
inhibition at 0.5 µM [12]: -2%
inhibition at 10 µM [12]: 24%
inhibition at 0.5 µM [13]: 22%
inhibition at 10 µM [13]: 84%
inhibition at 0.5 µM [14]: 24%
inhibition at 10 µM [14]: 89%
